Test results reported in patent US5441984A, “Urea, thiourea and guanidine derivatives” (Eli Lilly and Company, priority 1994, dated 1995).

How the values were obtained:
diabetic rats = test: In Vivo Vascular Permeability Study in diabetic rats; parameters: species or system rat; details: treated diabetic rats; 0.1% of diet, seven weeks; Mean ± SD; eight rats per group
Procedure: As confirmation of the in vivo results obtained above, a second in vivo experiment was conducted. In this in vivo test system the compound of Example 7 was fed to diabetic rats at 0.1% of the rat's diet for seven weeks. After seven weeks the rats were killed and vascular permeability in a number of different organ systems was compared. In Table III, Column 1 discloses the organ system examined, while Columns 2, 3 and 4 disclose the vascular permeability in μg of plasma/gram wet weight/minute for control (non-diabetic rats), untreated (diabetic rats/untreated) and treated (diabetic rats/treated), respectively (eight rats per each group).

[1] = molecular target: Protein Kinase C mediated procollagenase synthesis and secretion; test: In Vitro Inhibition of Procollagenase: PKC (PDBu) stimulated procollagenase synthesis and secretion in primary human dermal fibroblasts; format: cell-based; parameters: unit not given here; details: 2.0% FBS used to supplement DME; 10 nM PDBu, 72 hours
From the text: Collagenase and stromelysin are matrix metalloendoproteases which are known to be synthesized and secreted by a number of cell types in response to Protein Kinase C (PKC) activation. Matrix metalloendoproteases are responsible for the degradation of extracellular matrix molecules in the basement membrane and play a role in cell invasiveness, tissue remodeling alterations in the microvasculature (increased capillary permeability and uncontrolled cell growth) and normal matrix turnover. Alterations in the microvasculature are hallmarks of diabetic complications such as kidney failure, blindness and neuropathy. Accordingly, the ability to modulate PKC driven pathways, such as the synthesis and secretion of the […] enzyme precursor, procollagenase, should provide pharmacological advantages in treating diabetic complications.
The compounds of the present invention were evaluated for their ability to antagonize Protein Kinase C mediated procollagenase synthesis and secretion according to the following methodology.
Stimulation of the enzyme Protein Kinase C with 4-β-phorbol-12,13-dibutyrate (PDBu) leads human fibroblasts and other cells of endodermal, mesodermal and ectodermal origin to synthesize and secrete the enzyme precursor procollagenase. […]
9. After washing, the plates were read. […]

For `CSc1ccc(NC(=O)NCc2cc(C(C)(C)C)c(O)c(C(C)(C)C)c2)cc1` [Example 6, N-[[3,5-Bis(1,1-dimethylethyl)-4-hydroxyphenyl]methyl]-N'-[4-(methylthio)phenyl]urea], the “% Normalization of Diabetic State, Blood Flow” value (from here on “% Normalization … Blood Flow”) (rat) was 35.48% and the “% Normalization of Diabetic State, Blood Vessel Permeability” value (rat) was 66.12%.
For `COc1c(C(C)(C)C)cc(CNC(=O)Nc2ccc(SC)cc2)cc1C(C)(C)C` [Example 7], the “vascular permeability, aorta” value (diabetic rats) was 109 ± 65 μg plasma/g wet weight/min, the “vascular permeability, brain” value (diabetic rats) was 26 ± 11 μg plasma/g wet weight/min and the “vascular permeability, heart” value (diabetic rats) was 547 ± 181 μg plasma/g wet weight/min. The “vascular permeability, kidney” value (diabetic rats) was 1208 ± 293 μg plasma/g wet weight/min, the “vascular permeability, muscle” value (diabetic rats) was 59 ± 13 μg plasma/g wet weight/min and the “vascular permeability, ocular anterior uvea” value (diabetic rats) was 373 ± 105 μg plasma/g wet weight/min. The “vascular permeability, ocular posterior uvea” value (diabetic rats) was 323 ± 91 μg plasma/g wet weight/min, the “vascular permeability, retina” value (diabetic rats) was 62 ± 18 μg plasma/g wet weight/min and the “vascular permeability, sciatic nerve” value (diabetic rats) was 59 ± 18 μg plasma/g wet weight/min.
For `CSc1ccccc1NC(=O)NCc1cc(C(C)(C)C)c(O)c(C(C)(C)C)c1` [Example 9, N-[[3,5-Bis(1,1-dimethylethyl)-4-hydroxyphenyl]methyl]-N'-[2-(methylthio)phenyl]urea], the “% Normalization … Blood Flow” value (rat) was 23.29% and the “% Normalization of Diabetic State, Blood Vessel Permeability” value (rat) was 8.45%.
With `CC(C)(C)c1cc(CNC(=S)Nc2ccccc2)cc(C(C)(C)C)c1O` [Example 10, N-[[3,5-Bis(1,1-dimethylethyl)-4-hydroxyphenyl]methyl]-N'-phenylthiourea] the “% Normalization … Blood Flow” value (rat) was 17.56% and the “% Normalization of Diabetic State, Blood Vessel Permeability” value (rat) was 1.99%.
`CSc1cccc(NC(=O)NCc2cc(C(C)(C)C)c(O)c(C(C)(C)C)c2)c1` [Example 11, N-[[3,5-Bis(1,1-dimethylethyl)-4-hydroxyphenyl]methyl]-N'-[3-(methylthio)phenyl]urea] was tested, and the “% Normalization … Blood Flow” value (rat) was 21.50% and the “% Normalization of Diabetic State, Blood Vessel Permeability” value (rat) was -30.34%.
“N-[[3-(methylthiophenyl)-4-hydroxy-5-(1,1-dimethylethyl)phenyl]methyl]-N'-[4-(methylthio)phenyl]urea [Example 13]” showed an IC50 [1] of 8.6.
